Tested on: RGC-5 cells
Assay: Cytoprotective action under OGD stress (dead cell rate, nuclear staining)
Type: cell-based
Conditions: no OGD stress
Protocol: The RGC-5 cell line is a cell line from rat retinal ganglion cells and used for in vitro tests for cell damage evaluation. The RGC-5 cell line can be cultured in accordance with the method disclosed in NAKAJIMA Y. et al., Zeaxanthin, a Retinal Carotenoid, Protects Retinal Cells against Oxidative Stress, Current Eye Research, 2009, Vol. 34, pp. 311-318.
Here, the expression OGD stress refers to a state in which the supply of oxygen and glucose is restricted.
RGC-5 cells were added at a concentration of 1×10^3 cells/well to a DMEM medium containing glucose […] that was concentrated at 4.5 times the general concentration and fetal bovine serum (FBS: 10%) of Oseanian origin that was concentrated at 10 times the general concentration, followed by culture for 24 hours. […]
Then, the mixture was washed twice with FBS-free base medium, followed by culture in DMEM medium containing high-concentration glucose […] and general-concentration FBS (1%) for 18 hours. The dead cell rate and the state of reactive oxygen species (ROS) generation were determined via nuclear staining. […] Meanwhile, the state of reactive oxygen species (ROS) generation was determined in accordance with the method disclosed in NAKAJIMA Y. et al., Zeaxanthin, a Retinal Carotenoid, Protects Retinal Cells against Oxidative Stress, Current Eye Research, 2009, Vol. 34, pp. 311-318. […]

SMILES: CC1=NN(c2ccccc2)C(=O)C1 [Edaravone]
- cell death in the absence of OGD stress: did not cause cell death

— patent publication US20170007554A1, “MEDICINE FOR PREVENTING ISCHEMIC DISEASES” (JX NIPPON OIL & ENERGY CORPORATION, priority 2014, published 2017)
